Measured values as given in article PMC5267425, “Identification of small molecule modulators of HIV-1 Tat and Rev protein accumulation” (Retrovirology, 2017).

Tested on: cellular gene expression in HeLa rtTA HIV∆Mls cells

In the case of Cc1cc(NCc2cccnc2)n2ncc(-c3ccc(Cl)cc3)c2n1 [Compound 791, 3-(4-chlorophenyl)-5-methyl-N-(3-pyridinylmethyl)pyrazolo[1,5-a]pyrimidin-7-amine], the “AARS Mean fold change” value is reported as 2.833, the “ABCC3 Mean fold change” value is reported as 2.692 and the “ABCG1 Mean fold change” value is reported as 3.311. The “ABHD6 Mean fold change” value was 1.566, the “AC004490.2 Mean fold change” value was 2.204 and the “AC006486.1 expression fold change” value was 0.690. The “AC008763.1 expression fold change” value was 0.679, the “AC009133.2 Mean fold change” value was 1.588 and the “AC010442.1 Mean fold change” value was 1.579. For the same compound, the “AC013356.3 expression fold change” value was 1.345, the “AC037487.1 expression fold change” value was 1.347 and the “AC068020.2 Mean fold change” value was 2.561. For the same compound, the “AC092295.7 expression fold change” value was 0.786, the “AC135352.1 Mean fold change” value was 1.465 and the “AC138904.2 Mean fold change” value was 2.431. The “ACADVL Mean fold change” value was 1.427, the “ACAP3 expression fold change” value was 0.896 and the “ACER2 expression fold change” value was 1.385. For the same compound, the “ACN9 expression fold change” value was 1.202, the “ACOT9 expression fold change” value was 0.729 and the “ACTN1 expression fold change” value was 0.801. The “ADD1 expression fold change” value was 0.880, the “ADI1 expression fold change” value was 0.759 and the “ADO expression fold change” value was 1.398. The “AGPAT2 expression fold change” value was 0.738, the “AGPAT9 Mean fold change” value was 1.761 and the “AGXT2L2 Mean fold change” value was 1.839. For the same compound, the “AHCTF1 expression fold change” value was 1.155, the “AIDA expression fold change” value was 1.199 and the “AIFM1 expression fold change” value was 1.118. The “AKIRIN2 expression fold change” value was 1.270, the “ALDH2 Mean fold change” value was 1.928 and the “ALDOC expression fold change” value was 0.728. For the same compound, the “ALG5 expression fold change” value was 1.288, the “ALKBH8 expression fold change” value was 1.320 and the “ALX1 expression fold change” value was 1.051. For the same compound, the “ANKHD1 expression fold change” value was 1.136, the “ANKRD40 expression fold change” value was 1.260 and the “ANKRD50 expression fold change” value was 1.377. For the same compound, the “ANKS1A expression fold change” value was 0.869, the “ANXA5 expression fold change” value was 0.844 and the “ANXA6 expression fold change” value was 0.632. The “AP2M1 expression fold change” value was 0.841, the “AP3S2 expression fold change” value was 1.386 and the “AP000926.1 Mean fold change” value was 1.726. For the same compound, the “APBA3 expression fold change” value was 1.129, the “APOBEC3B expression fold change” value was 0.520 and the “ARF1 expression fold change” value was 0.787. For the same compound, the “ARF3 expression fold change” value was 0.882, the “ARG2 Mean fold change” value was 3.609 and the “ARHGAP11A expression fold change” value was 0.778. The “ARHGAP26 Mean fold change” value was 1.819, the “ARHGEF2 Mean fold change” value was 2.222 and the “ARHGEF4 Mean fold change” value was 1.690. The “ARL4D expression fold change” value was 1.406, the “ARL17B Mean fold change” value was 1.427 and the “ARMC10 expression fold change” value was 1.383. The “ARNTL Mean fold change” value was 1.815, the “ARPC5 expression fold change” value was 0.694 and the “ARSJ expression fold change” value was 1.309. The “ASB7 expression fold change” value was 1.181, the “ASB8 expression fold change” value was 1.184 and the “ASCC1 expression fold change” value was 1.134. The “ASNS Mean fold change” value was 5.898, the “ASNSD1 expression fold change” value was 1.208 and the “ATF4 Mean fold change” value was 1.683. The “ATG4B expression fold change” value was 1.240, the “ATG12 expression fold change” value was 1.178 and the “ATG16L1 expression fold change” value was 1.132. For the same compound, the “ATIC expression fold change” value was 1.115, the “ATP2B1 Mean fold change” value was 1.479 and the “ATP5H expression fold change” value was 1.145. For the same compound, the “ATP6AP1L Mean fold change” value was 1.979, the “ATP6V0A1 expression fold change” value was 0.795 and the “ATP6V1B2 expression fold change” value was 1.261. The “ATP8B1 expression fold change” value was 0.527, the “ATXN7L2 expression fold change” value was 1.076 and the “AUP1 expression fold change” value was 1.231. The “AVL9 expression fold change” value was 1.338, the “AXIN1 expression fold change” value was 1.266 and the “B3GNT1 expression fold change” value was 0.674. For the same compound, the “B3GNT5 Mean fold change” value was 2.008, the “B4GALT5 expression fold change” value was 1.380 and the “BAT3 expression fold change” value was 0.841. The “BAZ1B expression fold change” value was 1.159, the “BCAR1 expression fold change” value was 0.869 and the “BCAR3 Mean fold change” value was 1.528. For the same compound, the “BCL7A expression fold change” value was 1.302, the “BCOR expression fold change” value was 0.835 and the “BCORL1 expression fold change” value was 0.826. For the same compound, the “BEST1 Mean fold change” value was 1.710, the “BHLHB9 expression fold change” value was 0.836 and the “BICD1 expression fold change” value was 1.280. For the same compound, the “BIVM expression fold change” value was 1.241, the “BMP2K expression fold change” value was 1.246 and the “BMPR1B expression fold change” value was 0.758. For the same compound, the “BRWD2 expression fold change” value was 1.126, the “BST2 expression fold change” value was 0.606 and the “BTRC expression fold change” value was 1.086. For the same compound, the “BUD13 expression fold change” value was 1.160, the “C1D expression fold change” value was 0.907 and the “C1orf27 expression fold change” value was 1.263. For the same compound, the “C1orf43 Mean fold change” value was 1.578, the “C1orf103 expression fold change” value was 1.312 and the “C1orf109 expression fold change” value was 1.133. For the same compound, the “C1orf115 expression fold change” value was 0.712, the “C1orf131 expression fold change” value was 1.232 and the “C2orf18 Mean fold change” value was 2.057. For the same compound, the “C2orf44 expression fold change” value was 1.212, the “C2orf49 expression fold change” value was 1.330 and the “C2orf60 Mean fold change” value was 1.552. For the same compound, the “C3orf19 expression fold change” value was 1.302, the “C3orf59 expression fold change” value was 0.622 and the “C4orf23 expression fold change” value was 1.124. For the same compound, the “C4orf27 expression fold change” value was 1.269, the “C4orf32 Mean fold change” value was 1.456 and the “C4orf43 expression fold change” value was 1.083. The “C5orf13 expression fold change” value was 0.675, the “C5orf15 expression fold change” value was 0.799 and the “C5orf30 expression fold change” value was 1.191. For the same compound, the “C5orf37 expression fold change” value was 1.270, the “C5orf45 expression fold change” value was 1.325 and the “C5orf51 expression fold change” value was 1.347. For the same compound, the “C6orf48 Mean fold change” value was 2.042, the “C6orf145 expression fold change” value was 0.730 and the “C7orf23 expression fold change” value was 1.243. The “C7orf25 expression fold change” value was 1.354, the “C7orf27 expression fold change” value was 0.879 and the “C7orf42 expression fold change” value was 0.864. For the same compound, the “C7orf44 expression fold change” value was 1.193, the “C9orf3 expression fold change” value was 0.575 and the “C9orf6 expression fold change” value was 1.317. For the same compound, the “C9orf46 expression fold change” value was 1.230, the “C9orf114 expression fold change” value was 1.133 and the “C9orf163 expression fold change” value was 0.820. The “C10orf76 expression fold change” value was 0.797, the “C10orf114 expression fold change” value was 0.622 and the “C11orf17 Mean fold change” value was 1.495. For the same compound, the “C11orf57 expression fold change” value was 1.379, the “C11orf73 expression fold change” value was 1.274 and the “C12orf35 expression fold change” value was 1.357. The “C12orf41 Mean fold change” value was 1.427, the “C12orf65 expression fold change” value was 1.231 and the “C12orf73 expression fold change” value was 1.310. The “C13orf23 expression fold change” value was 1.356, the “C14orf79 Mean fold change” value was 1.679 and the “C14orf104 expression fold change” value was 1.167. For the same compound, the “C14orf147 expression fold change” value was 0.683, the “C14orf167 Mean fold change” value was 1.721 and the “C15orf61 expression fold change” value was 1.088. For the same compound, the “C16orf63 expression fold change” value was 1.203, the “C16orf72 expression fold change” value was 1.363 and the “C17orf75 expression fold change” value was 1.209. For the same compound, the “C17orf80 expression fold change” value was 1.234, the “C18orf19 expression fold change” value was 1.208 and the “C18orf25 expression fold change” value was 1.336. For the same compound, the “C18orf45 expression fold change” value was 1.218, the “C19orf28 expression fold change” value was 0.696 and the “C19orf55 expression fold change” value was 1.216. For the same compound, the “C19orf57 Mean fold change” value was 2.062, the “C20orf29 expression fold change” value was 0.759 and the “C20orf177 expression fold change” value was 1.123. The “C22orf23 Mean fold change” value was 1.568, the “CA5B Mean fold change” value was 1.804 and the “CALD1 expression fold change” value was 0.520. For the same compound, the “CAP2 expression fold change” value was 0.518, the “CAPN1 expression fold change” value was 0.764 and the “CARS Mean fold change” value was 2.332. For the same compound, the “CASC5 expression fold change” value was 0.767, the “CASP8 expression fold change” value was 1.182 and the “CAT Mean fold change” value was 1.598. For the same compound, the “CAV2 expression fold change” value was 0.581, the “CC2D2A expression fold change” value was 0.869 and the “CCBL2 expression fold change” value was 1.248. The “CCDC22 expression fold change” value was 1.134, the “CCDC25 expression fold change” value was 1.260 and the “CCDC40 Mean fold change” value was 1.891. The “CCDC41 expression fold change” value was 1.182, the “CCDC55 expression fold change” value was 1.136 and the “CCDC85C expression fold change” value was 0.665. For the same compound, the “CCDC91 Mean fold change” value was 1.516, the “CCDC92 expression fold change” value was 1.319 and the “CCDC99 expression fold change” value was 0.607. The “CCDC102A expression fold change” value was 0.591, the “CCDC150 expression fold change” value was 0.840 and the “CCNB1IP1 Mean fold change” value was 1.940. The “CCNJ expression fold change” value was 1.250, the “CCNT2 expression fold change” value was 1.170 and the “CD276 expression fold change” value was 0.827. The “CDADC1 expression fold change” value was 1.201, the “CDC42EP3 expression fold change” value was 0.641 and the “CDK1 expression fold change” value was 0.737. For the same compound, the “CDK4 expression fold change” value was 1.239, the “CDK8 expression fold change” value was 1.082 and the “CDK17 expression fold change” value was 1.247. The “CDKL1 expression fold change” value was 0.840, the “CDKN2C expression fold change” value was 0.598 and the “CEBPG Mean fold change” value was 3.507. For the same compound, the “CEP70 expression fold change” value was 0.860, the “CES2 Mean fold change” value was 1.537 and the “CGN expression fold change” value was 0.519. The “CGRRF1 Mean fold change” value was 1.453, the “CHAC1 Mean fold change” value was 6.989 and the “CHCHD4 expression fold change” value was 1.327. The “CHN1 expression fold change” value was 0.798, the “CHN2 expression fold change” value was 1.345 and the “CLCN2 expression fold change” value was 1.278. The “CLCN5 Mean fold change” value was 1.584, the “CLEC2D Mean fold change” value was 1.905 and the “CLIC4 Mean fold change” value was 1.468. The “CLPTM1L expression fold change” value was 0.747, the “CLUAP1 Mean fold change” value was 1.416 and the “CNN2 expression fold change” value was 0.712. For the same compound, the “CNNM3 expression fold change” value was 0.809, the “CNOT4 expression fold change” value was 1.191 and the “COG1 expression fold change” value was 1.328. For the same compound, the “COG8 expression fold change” value was 1.183, the “COL4A3BP Mean fold change” value was 1.572 and the “COMMD1 expression fold change” value was 0.832. For the same compound, the “COMMD4 expression fold change” value was 0.856, the “COPS7B Mean fold change” value was 1.473 and the “COX7A2L expression fold change” value was 1.194. For the same compound, the “COX7A2 expression fold change” value was 0.949, the “COX19 expression fold change” value was 1.369 and the “CPD Mean fold change” value was 1.588. For the same compound, the “CREB1 expression fold change” value was 1.234, the “CRTC3 expression fold change” value was 0.714 and the “CSE1L expression fold change” value was 0.867. The “CSGALNACT2 expression fold change” value was 1.343, the “CSNK1A1 Mean fold change” value was 1.528 and the “CSNK2A1 expression fold change” value was 1.245. The “CSRNP2 expression fold change” value was 1.269, the “CSRP2BP Mean fold change” value was 1.435 and the “CSRP2 expression fold change” value was 0.574. The “CST3 expression fold change” value was 1.145, the “CTC-241N9.1 Mean fold change” value was 1.850 and the “CTD-2526A2.1 Mean fold change” value was 1.524. For the same compound, the “CTH Mean fold change” value was 2.646, the “CTNND1 expression fold change” value was 0.683 and the “CTSL1 Mean fold change” value was 1.489. For the same compound, the “CTTNBP2 expression fold change” value was 0.629, the “CUEDC2 expression fold change” value was 1.278 and the “CWC25 expression fold change” value was 1.169. For the same compound, the “CXADR expression fold change” value was 1.102, the “CYFIP1 expression fold change” value was 0.887 and the “CYP2R1 Mean fold change” value was 1.818. The “CYP2S1 expression fold change” value was 1.098, the “CYTH3 expression fold change” value was 0.536 and the “DAB2 expression fold change” value was 0.623. For the same compound, the “DAG1 expression fold change” value was 0.608, the “DAGLB expression fold change” value was 0.867 and the “DBF4B expression fold change” value was 0.760.
